Assay results as given in ChEMBL document CHEMBL3132762, “The effect of a thieno[2,3-b]pyridine PLC- inhibitor on the proliferation, morphology, migration and cell cycle of breast cancer cells” (Medchemcomm, 2014).
pIC50: −log10 of the molar value. One block for each molecule: values may come before it. Calls of active or inactive are those of the source. The rule behind the calls is not given here.

Key:
[1] = Inhibition of ER-positive human TamR3 cell proliferation assessed as [3H]thymidine incorporation into DNA helix after 3 days by betaplate counting analysis; assay type: functional, cell-based
MDA-MB-435 = assay: Inhibition of oestrogen, progesterone and HER2/neu receptor triple negative human MDA-MB-435 cell proliferation assessed as [3H]thymidine incorporation into DNA helix after 3 days by betaplate counting analysis; assay type: functional, cell-based
MDA-MB-468 [2] = assay: Cell cycle arrest in human MDA-MB-468 cells assessed as cell shifting from dominant G0/G1 phases to G2/M phases at 1 uM after 16 to 24 hrs by flow cytometry; assay type: functional, cell-based
MDA-MB-468 [3] = assay: Cell cycle arrest in human MDA-MB-468 cells assessed as cell accumulation at S phase at 1 uM after 16 to 24 hrs by flow cytometry; assay type: functional, cell-based
[4] = Inhibition of ER-positive human TamC6 cell proliferation assessed as [3H]thymidine incorporation into DNA helix after 3 days by betaplate counting analysis; assay type: functional, cell-based
[5] = Inhibition of ER-positive human TamC3 cell proliferation assessed as [3H]thymidine incorporation into DNA helix after 3 days by betaplate counting analysis; assay type: functional, cell-based
MDA-MB-231 [6] = assay: Cell cycle arrest in human MDA-MB-231 cells assessed as cell shifting from dominant G0/G1 phases to G2/M phases at 1 uM after 16 to 24 hrs by flow cytometry; assay type: functional, cell-based
SK-BR-3 = assay: Inhibition of HER2-overexpressing human SKBR3 cell proliferation assessed as [3H]thymidine incorporation into DNA helix after 3 days by betaplate counting analysis; assay type: functional, cell-based
T47D [7] = assay: Inhibition of ER-positive human T47D cell proliferation assessed as [3H]thymidine incorporation into DNA helix after 3 days by betaplate counting analysis; assay type: functional, cell-based
MCF7 [8] = assay: Inhibition of ER-positive human MCF7 cell proliferation assessed as [3H]thymidine incorporation into DNA helix after 3 days by betaplate counting analysis; assay type: functional, cell-based
MDA-MB-231 [9] = assay: Induction of morphological changes in red fluorescent labelled human MDA-MB-231 cells assessed as rounded-up cells after 16 hrs by microscopic analysis; assay type: functional, cell-based
T47D [10] = assay: Cell cycle arrest in human T47D cells assessed as cell shifting from dominant G0/G1 phases to G2/M phases at 1 uM after 16 to 24 hrs by flow cytometry; assay type: functional, cell-based
MDA-MB-453 = assay: Inhibition of oestrogen, progesterone and HER2/neu receptor triple negative human MDA-MB-453 cell proliferation assessed as [3H]thymidine incorporation into DNA helix after 3 days by betaplate counting analysis; assay type: functional, cell-based
HBL-100 = assay: Inhibition of oestrogen, progesterone and HER2/neu receptor triple negative human HBL100 cell proliferation assessed as [3H]thymidine incorporation into DNA helix after 3 days by betaplate counting analysis; assay type: functional, cell-based
MDA-MB-468 [11] = assay: Inhibition of oestrogen, progesterone and HER2/neu receptor triple negative human MDA-MB-468 cell proliferation assessed as [3H]thymidine incorporation into DNA helix after 3 days by betaplate counting analysis; assay type: functional, cell-based
[12] = Inhibition of ER-positive human TamR6 cell proliferation assessed as [3H]thymidine incorporation into DNA helix after 3 days by betaplate counting analysis; assay type: functional, cell-based
MCF7 [13] = assay: Cell cycle arrest in human MCF7 cells assessed as cell accumulation at S phase at 1 uM after 16 to 24 hrs by flow cytometry; assay type: functional, cell-based
[14] = Inhibition of ER-positive human TamR7 cell proliferation assessed as [3H]thymidine incorporation into DNA helix after 3 days by betaplate counting analysis; assay type: functional, cell-based
MDA-MB-436 = assay: Inhibition of oestrogen, progesterone and HER2/neu receptor triple negative human MDA-MB-436 cell proliferation assessed as [3H]thymidine incorporation into DNA helix after 3 days by betaplate counting analysis; assay type: functional
MDA-MB-231 [15] = assay: Inhibition of oestrogen, progesterone and HER2/neu receptor triple negative human MDA-MB-231 cell proliferation assessed as [3H]thymidine incorporation into DNA helix after 3 days by betaplate counting analysis; assay type: functional, cell-based
MDA-MB-231 [16] = assay: Reduction in red fluorescent mKATE2 labelled human MDA-MB-231 cell number at 1 uM after 24 hrs by fluorescent microscopic analysis; assay type: ADME, cell-based; conditions: mda-mb-231, 24 h
MDA-MB-231 [17] = assay: Cell cycle arrest in human MDA-MB-231 cells assessed as cell accumulation at S phase at 1 uM after 16 to 24 hrs by flow cytometry; assay type: functional, cell-based
T47D [18] = assay: Cell cycle arrest in human T47D cells assessed as cell accumulation at S phase at 1 uM after 16 to 24 hrs by flow cytometry; assay type: functional, cell-based
BT-20 = assay: Inhibition of oestrogen, progesterone and HER2/neu receptor triple negative human BT20 cell proliferation assessed as [3H]thymidine incorporation into DNA helix after 3 days by betaplate counting analysis; assay type: functional, cell-based
MCF7 [19] = assay: Cell cycle arrest in human MCF7 cells assessed as cell shifting from dominant G0/G1 phases to G2/M phases at 1 uM after 16 to 24 hrs by flow cytometry; assay type: functional, cell-based
MDA-MB-231 [20] = assay: Inhibition of red fluorescent mKATE2 labelled human MDA-MB-231 cell migration assessed as displacement of wound edges at 1 uM after 24 hrs by wound healing assay; assay type: functional; conditions: MDA-MB-231, 24 h
[21] = Inhibition of ER-positive human KPL1 cell proliferation assessed as [3H]thymidine incorporation into DNA helix after 3 days by betaplate counting analysis; assay type: functional, cell-based; conditions: KPL-1
MDA-MB-231 [22] = assay: Induction of morphological changes in red fluorescent labelled human MDA-MB-231 cells assessed as rounded-up cells at 6.25 to 1000 nM after 16 hrs by microscopic analysis; assay type: functional, cell-based
MDA-MB-231 [23] = assay: Growth inhibition of human MDA-MB-231 cells after 3 days by DAPI staining; assay type: functional; conditions: MDA-MB-231, 72 h

- pIC50 (MDA-MB-435): 7.11
- pIC50 (SK-BR-3): 6.86
- pIC50 (T47D [7]): 6.24
- pIC50 (MCF7 [8]): 6.90
- pIC50 (MDA-MB-453): 6.73
- pIC50 (MDA-MB-468 [11]): 6.79
- pIC50 (MDA-MB-436): 6.80
- pIC50 (MDA-MB-231 [15]): 6.45
- pIC50 (BT-20): 6.71
SMILES: Nc1c(C(=O)Nc2cccc(Cl)c2)sc2nc3c(cc12)C(=O)CCC3
- pIC50 [1]: 6.92
- Activity (MDA-MB-468 [2]): Active
- Activity (MDA-MB-468 [3]): inactive
- pIC50 [4]: 6.99
- pIC50 [5]: 6.91
- Activity (MDA-MB-231 [6]): Active
- Activity (MDA-MB-231 [9]): Active
- Activity (T47D [10]): Active
- pIC50 (HBL-100): 6.58
- pIC50 [12]: 6.98
- Activity (MCF7 [13]): inactive
- pIC50 [14]: 6.81
- Activity (MDA-MB-231 [16]): Toxic
- Activity (MDA-MB-231 [17]): inactive
- Activity (T47D [18]): inactive
- Activity (MCF7 [19]): Active
- inhibition at 1 µM (MDA-MB-231 [20]): 50%
- pIC50 [21]: 6.97

- GI50 (MDA-MB-231 [23]): 25 nM
SMILES: CC(=O)Nc1cccc(-n2c(=O)n(C3CC3)c(=O)c3c(Nc4ccc(I)cc4F)n(C)c(=O)c(C)c32)c1 [TRAMETINIB]
- Activity (MDA-MB-231 [22]): inactive
